# Data: PubChem BioAssay (NCI)
# Values joined by “and” are separate entries in the source; they are usually repeats but may differ in a detail not shown here. Equal entries are not always repeated.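 Cultured in 96-well plates, cells were exposed to test compound for 48 hours across five concentrations. GI50 = concentration required for 50% inhibition of growth. At the TGI there is no net growth.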
# Tests used:
# Assay in all cases: DTP human tumour cell line panel, 48 h
# [1] = test system: 786-0 renal
# [2] = test system: DU-145 prostate
# [3] = test system: HCT-15 colon
# [4] = test system: SW-620 colon
# [5] = test system: EKVX NSCLC
# [6] = test system: MCF7 breast
# [7] = test system: UACC-62 melanoma
# [8] = test system: T-47D breast
# [9] = test system: HS 578T breast
# [10] = test system: SF-268 CNS
Structure (SMILES),TGI [1],TGI [2],TGI [3] [µM],TGI [4] [µM],TGI [5] [µM],TGI [6] [µM],TGI [7],TGI [8],TGI [9],TGI [10] [µM],GI50 [2],GI50 [5],GI50 [6],GI50 [10]
Nc1nc(Cl)cc(NCC2(CO)CCC(Cc3ccccc3)C2)n1 (centres undefined),> 100 µM,> 100 µM,> 100,> 100,> 100,71,40.1 µM,> 70.3 µM,> 79.9 µM,> 100,,,,
O=C(Oc1ccccc1)c1cc2cc(CCl)ccc2oc1=O,64.4 µM,98.7 µM,> 100,> 100,38.5,> 100,27.5 µM,38.7 µM,52.8 µM,73.9,,,,
CC1CCCC2=C1C(c1ccc(Cl)cc1)n1c(s/c(=C\c3ccc(Cl)cc3)c1=O)=N2 (centres undefined),> 100 µM,> 100 µM,> 100,> 100,> 100,> 100,> 100 µM,> 100 µM,> 100 µM,> 100,,,,
CC(=O)Nc1ncc(Sc2ccccc2C(=O)O)s1,> 100 µM,> 100 µM,> 100,> 100,> 100,> 100,> 100 µM,> 100 µM,> 100 µM,> 100,,,,
O=C(c1cc(Cl)cc(Cl)c1)N(C(=S)OC12CC3CC(CC(C3)C1)C2)c1ccccc1,> 100 µM,> 100 µM,> 100,> 100,69.1,> 100,> 100 µM,> 100 µM,> 100 µM,> 100,,,,
O=C1C2C=CC1C1C(=O)OC(=O)C21 (centres undefined),> 100 µM,> 100 µM,> 100,> 100,> 100,> 100,> 100 µM,> 100 µM,> 100 µM,> 100,,,,
COc1cc(N=NN(C)C)c(C(C)c2c3cc(OC)c(OC)cc3cc[n+]2C)cc1OC (centres undefined),> 100 µM,> 100 µM,> 100,> 100,> 100,> 100,59.5 µM,76.2 µM,> 100 µM,> 100,,,,
O=C1c2cc3ccccc3cc2C2(c3ccc(Cl)cc3)N[C@H]3CCCC[C@@H]3N12 (some centres undefined),23.3 µM,60.2 µM,> 100,59.3,26.8,84.9,35.2 µM,52.7 µM,27.9 µM,39,,,,
COC(=O)C(CCC1C=CCC1)N=Cc1ccccc1 (centres undefined),> 100 µM,> 100 µM,> 100,> 100,> 100,> 100,> 100 µM,> 100 µM,> 100 µM,> 100,,,,
NC1C/C(=N\O)c2c(I)sc(I)c21 (centres undefined),> 50.9 µM,31.4 µM,30.6,29.4,40.4,36,37.1 µM,52.3 µM,48.9 µM,35.3,,,,
CC(=O)Oc1ccc2c(c1)c1c(=O)oc(N(C)C)nc1n2Cc1ccccc1,> 100 µM,> 100 µM,> 100,> 100,> 100,> 100,> 100 µM,> 92.9 µM,> 100 µM,> 100,,,,
O=C(O)CSCC(=O)Nc1ccc2cccc3c2c1CC3,> 100 µM,> 100 µM,> 100,> 100,> 100,> 100,> 100 µM,> 100 µM,> 100 µM,> 100,,,,
NC1CC(=O)c2csc(Br)c21 (centres undefined),> 50.7 µM,> 52.1 µM,41.2,24.8,33.1,68,33.2 µM,> 59.3 µM,46.5 µM,44.1,,,,
O=C1OC(c2ccc(O)c(Cl)c2)(c2ccc(O)c(Cl)c2)c2ccc(Br)c3cccc1c23 (tested in a mixture with another compound),35.8 µM,46.8 µM,44,41.1,29.3,30.6,26.1 µM,13.3 µM,> 53.1 µM,31.3,,,,
CCCN1C(=O)CCC2=C1CCc1c2ccc(Cl)c1Cl,> 100 µM,> 100 µM,> 100,> 100,> 100,> 100,5.44 µM,> 100 µM,22 µM,> 100,,,,
O=C(CN1CCN(C(=O)OCc2ccccc2)CCN(CC(=O)N2CCCCC2)CCN(C(=O)OCc2ccccc2)CC1)N1CCCCC1,> 45.9 µM,> 54.8 µM,> 50.6,> 53.5,> 56.7,44.6,38.8 µM,38.8 µM,35.2 µM,31.8,,,,
CC1(c2ccc(Cl)cc2)CC(c2ccc(Cl)cc2)=C(C#N)C(=C(C#N)C#N)N1 (centres undefined),24.7 µM,28.2 µM,32.5,> 100,35.6,49.8,33.5 µM,40 µM,50.3 µM,22.6,,,,
COc1ccc2c3c1OC1C(=O)C=CC4(O)C(C2)NCC[C@@]314 (some centres undefined),5.02 µM,13.1 µM,11.3,5.81,7.95,9.17,12.7 µM,5.69 µM,6.39 µM,7.55,,,,
OCCN(CCO)c1ccc2c(C(F)(F)F)cc(C(F)(F)F)nc2n1,> 100 µM,> 100 µM,> 100,> 100,> 100,> 100,> 100 µM,> 100 µM,> 100 µM,> 100,,,,
C/C(=N\Nc1ccc([N+](=O)[O-])cc1[N+](=O)[O-])c1ccc2ccccc2n1,> 100 µM,> 100 µM,> 100,> 100,> 100,> 100,> 100 µM,> 100 µM,> 100 µM,> 100,,,,
O=C1CCCc2c1c1c(n2Cc2ccccc2)-c2ccccc2C1=O,66.5 µM,> 100 µM,34.7,> 100,91.3,> 100,44.9 µM,33.3 µM,77.3 µM,64.1,,,,
COC(=O)NCCc1[nH]nc2c1C(=O)C=C(Nc1ccccc1)C2=O,> 100 µM,> 100 µM,> 100,> 100,> 100,31.2,34.8 µM,> 100 µM,> 100 µM,> 100,,,,
CC(C)C(C/C=C1/CC(CO)(COC(=O)CC(C(C)C)C(C)C)OC1=O)C(C)C (centres undefined),23.3 µM,26.3 µM,30.3,18.1,19.4,28.4,30.1 µM,22.9 µM,2.29 µM,23.1,,,,
CN1CCC2(CC1)C(=O)N(N1CCCCCC1)C(=O)N2c1ccccc1,> 100 µM,> 100 µM,> 100,> 100,> 100,> 100,> 100 µM,> 100 µM,> 100 µM,> 100,,,,
COc1ccc(C2SCC(=O)N2c2ccc(-c3ccc(-n4c(-c5ccccc5)nc5ccccc5c4=O)cc3)cc2)cc1 (centres undefined),> 100 µM,> 100 µM,> 100,> 100,> 100,> 100,> 100 µM,> 100 µM,> 100 µM,> 100,,,,
COc1cc([C@@H]2c3cc4c(cc3[C@@H](NCCNCCO)[C@H]3COC(=O)[C@H]23)OCO4)cc(OC)c1O,3.02 µM and 3.48 µM,9.83 µM and > 33.9 µM,> 100,> 100,> 100,> 36.7,5.34 µM and 3.61 µM,11.9 µM and 8.93 µM,19.2 µM and 5.4 µM,51.8,1.82 µM and 3.88 µM,5.36 µM and 13 µM,0.183 µM and 0.0876 µM,0.761 µM and 1.59 µM
O=C(Cn1nc(Br)c(Br)c1Br)c1ccccc1,77.4 µM,> 100 µM,> 100,> 100,> 100,83.6,56.9 µM,89.1 µM,> 100 µM,> 100,,,,
CC1C(c2ccc3c(c2)OCO3)c2cc3c(cc2OC1N1CCCC1)OCO3 (centres undefined),> 100 µM,> 100 µM,> 100,> 100,> 100,> 100,> 100 µM,> 100 µM,44.5 µM,> 100,,,,
